Measurements: patent US20160324172A1, “Post-Harvest Coating for Fresh Produce” (Jones-Hamilton Co., priority 2015, published 2016)

Assay: Solubility of emulsifier/stabilizer in the coating solution (visual evaluation)
Format: physicochemical
Procedure: For this experiment, coating solutions consisted of: 200 g tap water, 14 g SAS (7 w %), 30 g cornstarch (15 w %), and varying amounts of diverse emulsifiers/stabilizers.
Treatment: For each emulsifying material, one grape tomato was soaked for 1 minute in respective coating solution, and allowed to dry on a cooling tray. If material generated a visually preferred coating, 8 more grape tomatoes were coated (ntotal=9) in the same solution to generate enough samples for a microbial test. […] A second grape tomato was soaked, and if the stickiness improved, the concentration of the emulsifying ingredient was further increased until preferred coating was achieved. 8 more tomatoes were coated at preferred concentration (ntotal=9) for microbial testing.
Evaluation: Coatings were photographed and evaluated visually after the material dried. Microbial test of tomatoes with preferred coatings: Grape tomatoes were stored for 7 days at room temperature on cooling trays. Three tomatoes (triplicates) were swabbed with pre-wetted cotton swabs after: 24 hours, 3 days and 7 days. For dilution purpose, the swabs were transferred to Eppendorf tubes with 1 ml PBS. Three 1 ul loops (triplicates) were used to transfer three 1 ul samples per Eppendorf tube to nutrient agar plates. Per swab: 1 Eppendorf tubes and 3 nutrient agar plates. Per tomato: 3 Eppendorf tubes and 9 nutrient agar plates. Nutrient agar plates were incubated at room temperature for 7 days. Colony forming units were counted after: 24 hours, 3 days and 7 days.

## OCC(O)CO [Vegetable glycerin, glycerin]
  solubility in the water-based coating solution: good solubility
200 g tap water, 14 g SAS, 30 g cornstarch plus emulsifier, visual evaluation
  Coating solution (Solubility of emulsifier/stabilizer): Good
Overall assessment, solubility in coating solution
  Solubility: Good
